Measurements published in article PMC8997437, “Apelin Resistance Contributes to Muscle Loss during Cancer Cachexia in Mice” (Cancers, 2022).
“Also recorded” adds a separate entry of the source.

Columns and labels:
[1] = system: C2C12 myotubes; test: Total protein content of myotubes; type: cell-based, mouse; details: 10 μM dexamethasone, n = 6
Experimental: Total proteins were extracted from myotubes and muscles and quantitated as in [31]. Proteins were separated by electrophoresis on 4–20% sodium dodecyl sulfate-polyacrylamide gel electrophoresis (SDS-PAGE) (Bio-Rad, Hercules, CA, USA) and transferred to a polyvinylidene difluoride membrane (GE Healthcare, Chicago, IL, USA), which was then saturated for 2 h at RT with 5% bovine serum albumin (BSA) or milk in TBS-T buffer (20 mM Tris, 150 mM NaCl and 0.1% Tween-20) (Sigma). […] Band intensities were analyzed using ImageJ software.

[2] = system: MuRF1, atrogin-1 and apelin mRNA in myotubes; test: Q-PCR of atrophy-related genes in myotubes; type: cell-based, mouse; details: 10 μM Dexa, 24 h, TBP housekeeping, n = 6
Experimental: Total RNA was isolated from cells or muscles with QIAzol Lysis Reagent (Qiagen, Hilden, Germany) and miRNeasy Kit (Qiagen), as in [31]. RNA concentration and purity were measured in a spectrophotometer (NanoDrop 1000, ThermoFisher Scientific, Waltham, MA, USA).
mRNA/μg in muscle was analyzed using TaqMan reverse transcription reagents (Life Technologies) or SYBR Green (Qiagen). β-Glucuronidase (GUSB), or Tata binding protein (TBP), or Importin 8 (IPO8), or 18S ribosomal RNA (18S) were used as housekeeping genes (HK). To normalize for three HK, we used the ratio between the arithmetic average and the geometric average of the ng of cDNA of each gene, as described in [32].
TBP was used as housekeeping gene.

[3] = system: MuRF1 promoter; test: MuRF1 promoter-Firefly luciferase reporter assay in myoblasts; type: cell-based, mouse; details: 10 μM dexamethasone, 24 h, normalised to RLuc, n = 12
Experimental: We used C2C12 myoblasts grown in a 24-well plate and transfected with pLKO or preproapelin-expressing plasmids with murine MuRF1 promoter-FLuc plasmid, and pRL-TK plasmid (Promega) using Lipofectamine 2000 (Life Technologies Europe BV, Carlsbad, CA, USA). The next day, they were treated with vehicle or 10 μM dexamethasone for 24 h. Luciferase activities were measured using the Dual-Luciferase Reporter Assay System (Promega) and a luminometer (Glomax 20/20 single tube luminometer, Promega).
Myoblasts were transfected with a plasmid in which Firefly luciferase (FLuc) is under the control of a MuRF1 promoter, with another for Renilla luciferase (RLuc), under the control of thymidine kinase promoter to normalize the data (ratio 50:1) and with the empty vector pLKO, as control, or a preproapelin-expressing plasmid (Apln). After 24 h, myoblasts were treated with vehicle or with 10 μM Dexa for 24 h. […] Ordinary one-way ANOVA, ** p ≤ 0.01, **** p ≤ 0.0001, n = 12.

[4] = system: cAMP-responsive elements (CRE); test: CRE-luciferase (cAMP) reporter assay in transfected myoblasts, forskolin induction; type: cell-based, mouse; details: 50 μM forskolin, 5 h
Source text: To test whether D-apelin still binds APJ, ultimately lowering cAMP levels, we transfected myoblasts with a reporter plasmid with the gene for FLuc under the control of cAMP-responsive elements (CRE). […] As expected, forskolin induced the CRE-related bioluminescent signal more than 20-fold (Figure 4C).

[5] = system: APJ; details: cited from earlier work
[6] = system: C2C12 myotubes; test: Myotube diameter measurement (dexamethasone-induced atrophy); type: cell-based, mouse; details: four day-differentiated myotubes, 24 h; for protection of myotube diameter from dexamethasone-induced atrophy: 10 μM dexamethasone plus 10 nM peptide, n = 261–297
Experimental: C2C12 (ATCC, Manassas, VA, USA), a myoblast cell line from the C3H mouse strain, was grown in DMEM (Dulbecco’s Modified Eagle’s Medium, Gibco, Waltham, MA, USA) with fetal bovine serum (FBS) (Euroclone, Pero, Italy) and 2 mM L-glutamine, (BioWest, Nuaillè, France) and maintained in culture at 37 °C with 5% CO2. Myoblasts differentiate into myotubes when they reached 80% confluence and were cultured for four days in DMEM, 2 mM L-glutamine, horse serum (HS) (Euroclone), at 37 °C and 8% CO2. The differentiation medium was changed every two days.
Pictures of myotubes were acquired with an Olympus Microscope IX71 (10× magnification, 10× ocular lens, Olympus, Shinjuku, Japan) with Cell F (2.6 Build1210, Olympus) imaging software for Life Science microscopy (Olympus Soft Imaging solution GmbH, Munster, Germany). Myotube diameters were measured in blind conditions using ImageJ software (National Institutes of Health, Bethesda, MA, USA). For each photo 10–11 myotubes were measured, calculating the mean of three diameters per myotube, for a total of at least 100 cells per condition.
Four day-differentiated myotubes were exposed for 24 h to vehicle (Ctrl) or 10 μM dexamethasone (Dexa) and representative brightfield images are shown. […] We measured in blind the diameter of four day-differentiated myotubes exposed for 24 h to vehicle or 10 μM Dexamethasone (DEXA) in combination with vehicle or 10 nM apelin peptides of different lengths. […] Kruskal–Wallis test, **** p ≤ 0.0001, n = 261–297.

## C[C@@H]1C[C@H]2[C@@H]3CCC4=CC(=O)C=C[C@]4(C)[C@@]3(F)[C@@H](O)C[C@]2(C)[C@@]1(O)C(=O)CO [dexamethasone, Dexamethasone]
[1]
  reduction of total protein content: about 25%
[2]
  apelin expression (mRNA): halved
  increase of MuRF1 expression (mRNA): about 3 fold
  increase of atrogin-1 expression (mRNA): 3 fold
[3]
  increase of FLuc expression under MuRF1 promoter: ~15 fold

## C=C[C@@]1(C)CC(=O)[C@]2(O)[C@@]3(C)[C@@H](O)CCC(C)(C)[C@@H]3[C@H](O)[C@H](OC(C)=O)[C@@]2(C)O1 [forskolin]
[4]
  induction of CRE-related bioluminescent signal: more than 20 fold

## [Pyr1]-Apelin 13 [L-apelin 13]
[5]
  affinity for APJ: nanomolar affinity
[6]
  protection of myotube diameter from dexamethasone-induced atrophy: fully protects myotubes from dexamethasone-induced atrophy; also recorded: fully preserved myotube diameter

## apelin 36: apelin isoform of 36 amino acids binding APJ (Tocris) (LVQPRGSRNGPGPWQGGRRKFRRQRPRLSHKGPMPF; Apelin-36; UniProt Q9ULZ1 42-77, looked up)
[6]; 10 nM peptide with vehicle
  effect of peptide alone on myotube diameter: reduced myotube diameters
[6]
  protection of myotube diameter from dexamethasone-induced atrophy: Unlike apelin 36, apelin 13 fully protects
